Experimental data published in the supplement of paper PMC10307832.

What was measured:
Experiment in all cases: relative viability (nuclei count vs DMSO), 5 days (fraction); higher = more cells survive
GW-2580 + AZD7762 = compound: COC1=CC=C(C=C1)COC2=C(C=C(C=C2)CC3=CN=C(N=C3N)N)OC [GW-2580] + NC(=O)Nc1cc(-c2cccc(F)c2)sc1C(=O)N[C@H]1CCCNC1 [AZD7762] (partner 0.2 µM)
Method in brief: (§1)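 Lung cancer cell lines, seeded in 1536-well plates, were treated the following day by pin tool with a single drug or with five library-drug doses (not always all listed) in √10 steps on top of a fixed anchor-drug dose. Cells were fixed and nuclei stained in one step after 5 days, and nuclei were counted. Relative viability is the nuclei count for treated wells divided by that for vehicle wells, reported as medians of duplicate plates.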

GW-2580 + Trametinib = compound: COC1=CC=C(C=C1)COC2=C(C=C(C=C2)CC3=CN=C(N=C3N)N)OC [GW-2580] + CC(=O)Nc1cccc(-n2c(=O)n(C3CC3)c(=O)c3c(Nc4ccc(I)cc4F)n(C)c(=O)c(C)c32)c1 [Trametinib] (partner 0.02 µM)
Method in brief: as §1

Fedratinib + Phenformin = compound: Cc1cnc(Nc2ccc(OCCN3CCCC3)cc2)nc1Nc1cccc(S(=O)(=O)NC(C)(C)C)c1 [Fedratinib] + N=C(N)NC(=N)NCCc1ccccc1 [Phenformin] (partner 250 µM)
Method in brief: as §1

Fedratinib + Olaparib = compound: Cc1cnc(Nc2ccc(OCCN3CCCC3)cc2)nc1Nc1cccc(S(=O)(=O)NC(C)(C)C)c1 [Fedratinib] + O=C(c1cc(Cc2n[nH]c(=O)c3ccccc23)ccc1F)N1CCN(C(=O)C2CC2)CC1 [Olaparib] (partner 8 µM)
Method in brief: as §1

GW-2580 + Luminespib = compound: COC1=CC=C(C=C1)COC2=C(C=C(C=C2)CC3=CN=C(N=C3N)N)OC [GW-2580] + CCNC(=O)c1noc(-c2cc(C(C)C)c(O)cc2O)c1-c1ccc(CN2CCOCC2)cc1 [Luminespib] (partner 0.01 µM)
Method in brief: as §1

Cell Line | relative viability (GW-2580 + AZD7762; first compound 0.08 µM) | relative viability (GW-2580 + AZD7762; first compound 0.8 µM) | relative viability (GW-2580 + AZD7762; first compound 2.53 µM) | relative viability (GW-2580 + AZD7762; first compound 8 µM) | relative viability (GW-2580 + Trametinib; first compound 0.08 µM) | relative viability (GW-2580 + Trametinib; first compound 0.8 µM) | relative viability (GW-2580 + Trametinib; first compound 2.53 µM) | relative viability (GW-2580 + Trametinib; first compound 8 µM) | relative viability (Fedratinib + Phenformin; first compound 0.1 µM) | relative viability (Fedratinib + Phenformin; first compound 0.3162 µM) | relative viability (Fedratinib + Phenformin; first compound 1 µM) | relative viability (Fedratinib + Olaparib; first compound 0.1 µM) | relative viability (Fedratinib + Olaparib; first compound 0.3162 µM) | relative viability (Fedratinib + Olaparib; first compound 1 µM) | relative viability (GW-2580 + Luminespib; first compound 0.08 µM) | relative viability (GW-2580 + Luminespib; first compound 0.8 µM) | relative viability (GW-2580 + Luminespib; first compound 2.53 µM) | relative viability (GW-2580 + Luminespib; first compound 8 µM)
RERF-LC-KJ | 1.11 | 1.25 | 0.825 | 0.913 | 0.821 | 0.953 | 0.769 | 0.82 | 0.384 | 0.433 | 0.373 | 0.895 | 0.847 | 0.805 | 1.23 | 1.56 | 1.35 | 1.14
SW 900 | 0.68 | 0.616 | 0.574 | 0.557 | 0.711 | 0.785 | 0.759 | 0.896 | 0.445 | 0.672 | 0.327 | 0.95 | 0.887 | 0.695 | 0.17 | 0.182 | 0.161 | 0.146
